{"source": "patent US10179914B2", "about": "“CDC25A inhibitor for the treatment of drug resistant cancer or for the prevention of tumor relapse” (INSERM (INSTITUT NATIONAL DE LA SANTÉ ET DE LA RECHERCHE …, priority 2014, dated 2019)", "type_in_all_cases": "cell-based, human", "key": {"[1]": {"tested_on": "FLT3-ITD positive primary AML cells", "assay": "Clonogenic assay, FLT3-ITD positive primary AML cells", "conditions": "100 and 200 nM, day 7, semi-solid 5637 conditioned medium", "description": "(c) Primary cells from patients were cultured in semi-solid medium to estimate their clonogenic potential as described in the Methods section, in the presence or the absence of IRC-083864 (100 and 200 nM). 6 FLT3-ITD positive (upper panel) and 4 FLT3-wild type (lower panel) AML primary samples were used for these experiments. Leukemic colonies were scored under an inverted microscope at day 7.\n(§1) Patient samples. Patient AML samples were obtained after informed consent in accordance with the Declaration of Helsinki and stored at the HIMIP collection. According to the French law, HIMIP collection has been declared to the Ministry of Higher Education and Research (DC 2008-307 collection 1) and obtained a transfer agreement (AC 2008-129) after approbation by ethical committees (Comité de Protection des Personnes Sud-Ouest et Outremer II and APHP ethical committee). Clinical and biological annotations of the samples have been declared to the CNIL (Comité National Informatique et Libertés i.e. Data processing and Liberties National Committee). Frozen cells were thawed in IMDM medium with 20% FBS and immediately processed for treatment. All patients were diagnosed at the Department of Hematology of Toulouse University Hospital.\nClonogenic assay. […] Leukemic colonies were then scored under an inverted microscope."}, "[2]": {"tested_on": "TF-1 cells (FLT3 wild type)", "assay": "Cell proliferation, trypan blue counting, TF-1", "conditions": "200 nM", "description": "(a) MV4-11 and MOLM-14 FLT3-ITD positive cells, KG1, HL-60 and TF-1 FLT3 wild type cells, and K562 FLT3 negative cells were cultured in the presence of the CDC25 inhibitor IRC-083864 (200 nM). Cells were harvested each day and counted after trypan blue coloration. The graph represents three independent experiments.\nCell lines and reagents. Human acute myeloid leukemia cell lines MOLM-14 (Matsuo Y et al, Leukemia 1997) (kindly provided by Martin Carroll, University of Pennsylvania, Philadelphia, Pa., USA) MV4-11, K562 (ACC-102 and ACC-10, DSMZ, Braunschweig, Germany) and FLT3-ITD-expressing murine BaF3 cells were cultured in RPMI 1640 medium (Gibco, Life Technologies, Carlsbad, Calif., USA) supplemented with 10% fetal bovine serum (Sigma, Saint Louis, Calif., USA). TF-1 (ATCC-CRL2003) cells were cultured in RPMI 1640 medium with 10% fetal bovine serum and GM-CSF 2 ng/ml. Concerning MOLM-14 cell line, the presence of a monoallelic 21 bp FLT3-ITD mutation and of an MLL-containing ins(11; 9)(q23;p22p23) were verified (Hematology laboratory of Toulouse University Hospital, Prof E. Delabesse and Dr I. Luquet). KG1 and HL-60 (ACC-14 and ACC-3, DSMZ) cell lines were grown in Iscove's Modified Dulbecco's Medium (IMDM, Gibco) plus 20% FBS. All cells were grown in the presence of 100 units/ml of penicillin and streptomycin (Invitrogen) at 37° C. and 5% CO2."}, "[3]": {"tested_on": "FLT3-wild type primary AML samples", "assay": "Differentiation of FLT3 wild-type primary AML samples", "conditions": "same conditions", "excerpt": "as §1\nCo-cultures. […]\nFlow cytometry. Apoptotic cells were detected with Annexin V-FITC detection kit from BD Pharmingen (San Diego, Calif., USA) according to the manufacturer instructions. […] Data were collected on a LSRII or a LSRFortessa cytometer (BD Biosciences), and analyzed with FlowJo software. […]"}}, "data": [{"compound": "Cc1nc2c(s1)C(=O)C=C(NCCCN(C)CCCNC1=CC(=O)c3nc(-c4cc(F)ccc4F)oc3C1=O)C2=O", "note": "[IRC-083864]", "values": [{"measurement": "clonogenic potential of FLT3-ITD positive primary cells", "setting": "[1]", "result": "significantly reduced"}, {"measurement": "proliferation of TF-1", "setting": "[2]", "result": "did not decrease"}, {"measurement": "differentiation of FLT3-wild type samples", "setting": "[3]", "result": "no evidence of differentiation"}]}]}
